Measurements as given in patent US10485235B2, “Aryloxypyrimidinyl ethers as herbicides” (FMC Corporation, priority 2015, dated 2019).

What was measured:
Type in all cases: in vivo
[1] = tested on: barnyardgrass (Echinochloa crus-galli); assay: Test A preemergence, barnyardgrass; settings: Echinochloa crus-galli, pre-emergence, 240 h; Preemergence, 125 g ai/ha; 0 to 100 scale (0 no effect, 100 complete control); read-out: Plant response rating, Barnyardgrass
Outline: (§1)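 For postemergence, one- to two-leaf plants 2–10 cm tall were sprayed; for preemergence, seeded loam–sand soil got a directed spray. Both used compound in a non-phytotoxic, surfactant-containing solvent, with visual injury ratings (0–100) after roughly 10 greenhouse days.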

[2] = tested on: kochia (Kochia scoparia); assay: Test A preemergence, kochia; settings: Bassia scoparia, pre-emergence, 240 h, Preemergence, 0 to 100 scale (0 no effect, 100 complete control), read-out: Plant response rating, Kochia
Outline: as §1

[3] = tested on: ragweed (common ragweed, Ambrosia elatior); assay: Test A preemergence, ragweed; settings: Ambrosia artemisiifolia, pre-emergence, 240 h, Preemergence, 0 to 100 scale (0 no effect, 100 complete control), read-out: Plant response rating, Ragweed
Outline: as §1

[4] = tested on: pigweed (Amaranthus retroflexus); assay: Test A preemergence, pigweed; settings: Amaranthus retroflexus, pre-emergence, 240 h, Preemergence, 0 to 100 scale (0 no effect, 100 complete control), read-out: Plant response rating, Pigweed
Outline: as §1

[5] = tested on: barnyardgrass (Echinochloa crus-galli); assay: Test A postemergence, barnyardgrass; settings: Echinochloa crus-galli, post-emergence, 240 h, postemergence, 0 to 100 scale, 0 is no effect, 100 is complete control, approximately 10 days, read-out: Plant response rating, Barnyardgrass
Outline: as §1

[6] = tested on: kochia (Kochia scoparia); assay: Test A postemergence, kochia; settings: Bassia scoparia, post-emergence, 240 h, postemergence, 0 to 100 scale, 0 is no effect, 100 is complete control, approximately 10 days, read-out: Plant response rating, Kochia
Outline: as §1

[7] = tested on: ryegrass, Italian (Italian ryegrass, Lolium multiflorum); assay: Test A postemergence, Italian ryegrass; settings: Lolium multiflorum, post-emergence, 240 h, postemergence, 0 to 100 scale, 0 is no effect, 100 is complete control, approximately 10 days, read-out: Plant response rating, Ryegrass, Italian
Outline: as §1

[8] = tested on: foxtail, giant (giant foxtail, Setaria faberii); assay: Test A postemergence, giant foxtail; settings: Setaria faberi, post-emergence, 240 h, postemergence, 0 to 100 scale, 0 is no effect, 100 is complete control, approximately 10 days, read-out: Plant response rating, Foxtail, Giant
Outline: as §1

[9] = tested on: wheat (Triticum aestivum); assay: Test A postemergence, wheat; settings: Triticum aestivum, post-emergence, 240 h, postemergence, 0 to 100 scale, 0 is no effect, 100 is complete control, approximately 10 days, read-out: Plant response rating, Wheat
Outline: as §1

[10] = tested on: corn (Zea mays); assay: Test A postemergence, corn; settings: Zea mays, post-emergence, 240 h, postemergence, 0 to 100 scale, 0 is no effect, 100 is complete control, approximately 10 days
Outline: as §1

[11] = tested on: blackgrass (Alopecurus myosuroides); assay: Test A postemergence, blackgrass; settings: Alopecurus myosuroides, post-emergence, 240 h, postemergence, 0 to 100 scale, 0 is no effect, 100 is complete control, approximately 10 days, read-out: Plant response rating, Blackgrass
Outline: as §1

[12] = tested on: galium (catchweed bedstraw, Galium aparine); assay: Test A postemergence, galium; settings: Galium, post-emergence, 240 h, postemergence, 0 to 100 scale, 0 is no effect, 100 is complete control, approximately 10 days, read-out: Plant response rating, Galium
Outline: as §1

[13] = tested on: sedge, umbrella (small-flower umbrella sedge, Cyperus difformis); assay: Test B flooded paddy test, umbrella sedge; settings: Cyperus difformis; 250 g ai/ha, Flood; visual rating after 13 to 15 days; scale 0 to 100, 0 is no effect, 100 is complete control; read-out: Plant response rating, Sedge, Umbrella
Outline: (§2)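 Plants grown to 2-leaf stage, pots flooded to 3 cm above soil and compound applied directly to paddy water, depth maintained throughout. After 13-15 days in greenhouse, visual rating against untreated controls on 0-100 scale (0 no effect, 100 complete control).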

[14] = tested on: ducksalad (Heteranthera limosa); assay: Test B flooded paddy test, ducksalad; settings: Heteranthera limosa; 250 g ai/ha, Flood; visual rating after 13 to 15 days; scale 0 to 100, 0 is no effect, 100 is complete control; read-out: Plant response rating, Ducksalad
Outline: as §2

In the case of `FC(F)(F)COc1c(I)cccc1Oc1ncc(Cl)cn1` [Compound 65], the pest or weed control at 125 g/ha [1] is reported as 70%, the pest or weed control at 31 g/ha ([2]; 31 g ai/ha) is reported as 20% and the pest or weed control at 125 g/ha ([2]; 125 g ai/ha) is reported as 90%. It also gave a pest or weed control at 31 g/ha ([3]; 31 g ai/ha) of 0%, a pest or weed control at 125 g/ha ([3]; 125 g ai/ha) of 0% and a pest or weed control at 31 g/ha ([4]; 31 g ai/ha) of 50%. The pest or weed control at 125 g/ha ([4]; 125 g ai/ha) was 100%, the pest or weed control at 31 g/ha ([5]; 31 g ai/ha) was 0% and the pest or weed control at 125 g/ha ([5]; 125 g ai/ha) was 60%. For the same compound, the pest or weed control at 31 g/ha ([6]; 31 g ai/ha) was 80%, the pest or weed control at 125 g/ha ([6]; 125 g ai/ha) was 100% and the pest or weed control at 31 g/ha ([7]; 31 g ai/ha) was 0%. It also gave a pest or weed control at 125 g/ha ([7]; 125 g ai/ha) of 10%, a pest or weed control at 31 g/ha ([8]; 31 g ai/ha) of 10% and a pest or weed control at 125 g/ha ([8]; 125 g ai/ha) of 50%. The plant injury at 31 g/ha ([9]; 31 g ai/ha) was 0%, the plant injury at 125 g/ha ([9]; 125 g ai/ha) was 0% and the Corn plant response rating (crop injury, 0 = no effect, 100 = complete kill) at 31 g/ha ([10]; 31 g ai/ha) was 10%. It also gave a Corn plant response rating (crop injury, 0 = no effect, 100 = complete kill) at 125 g/ha ([10]; 125 g ai/ha) of 20%, a pest or weed control at 31 g/ha ([11]; 31 g ai/ha) of 0% and a pest or weed control at 125 g/ha ([11]; 125 g ai/ha) of 30%. For the same compound, the pest or weed control at 31 g/ha ([12]; 31 g ai/ha) was 30%, the pest or weed control at 125 g/ha ([12]; 125 g ai/ha) was 50% and the pest or weed control at 250 g/ha [13] was 90%. It also gave a pest or weed control at 250 g/ha [14] of 100%.
